Source: article PMC10439310 (Nature microbiology, 2022)

Tested on: inosine-5’-monophosphate dehydrogenase (IMPDH, gene: guaB)
Type: binding, Bacillus anthracis
Conditions: [32P]-Ap4A, lysates of E. coli overexpressing B. anthracis ORFs

Nc1ncnc2c1ncn2[C@@H]1O[C@H](COP(=O)(O)OP(=O)(O)OP(=O)(O)OP(=O)(O)OC[C@H]2O[C@@H](n3cnc4c(N)ncnc43)[C@H](O)[C@@H]2O)[C@@H](O)[C@H]1O [Ap4A, diadenosine 5’,5’’’-P1,P4-tetraphosphate]
binding in DRaCALA screen (in words): putative Ap4A-binding partner
